Target: T1, human Werner helicase (WRN-BV08, Uniprot Q14191, amino acids 517-1235 with L1074F point mutation) (Homo sapiens, UniProt Q14191, L1074F)
T1 construct: Uniprot Q14191, amino acids 517-1235 with L1074F point mutation; TEV-cleavable 8×His (C, cleaved yes); made in house; host or cells: Sf9 insect cells (baculovirus)
Assay: WRN (BV08) ADP-Glo Assay
Format: biochemical
Details: 0.15 nM WRN, 5 μM ATP, 0.1 nM DNA duplex, 15 min preincubation, 60 min at 25° C., pH 7.5, 1% DMSO; read-out: ADP-Glo_hWRN_IC50
Summary of the method: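 ADP-Glo luminescence read-out of ATP hydrolysis. Conditions: 0.15 nM WRN, 5 μM ATP, 0.1 nM DNA duplex, 1% DMSO, 60 min at 25 °C after 15 min compound preincubation. Max/min controls were DMSO and 20 μM NSC-617145; IC50 from four-parameter fit.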

T1 sequence (Q14191 with tags, fused parts or gaps L1074F limits assumed): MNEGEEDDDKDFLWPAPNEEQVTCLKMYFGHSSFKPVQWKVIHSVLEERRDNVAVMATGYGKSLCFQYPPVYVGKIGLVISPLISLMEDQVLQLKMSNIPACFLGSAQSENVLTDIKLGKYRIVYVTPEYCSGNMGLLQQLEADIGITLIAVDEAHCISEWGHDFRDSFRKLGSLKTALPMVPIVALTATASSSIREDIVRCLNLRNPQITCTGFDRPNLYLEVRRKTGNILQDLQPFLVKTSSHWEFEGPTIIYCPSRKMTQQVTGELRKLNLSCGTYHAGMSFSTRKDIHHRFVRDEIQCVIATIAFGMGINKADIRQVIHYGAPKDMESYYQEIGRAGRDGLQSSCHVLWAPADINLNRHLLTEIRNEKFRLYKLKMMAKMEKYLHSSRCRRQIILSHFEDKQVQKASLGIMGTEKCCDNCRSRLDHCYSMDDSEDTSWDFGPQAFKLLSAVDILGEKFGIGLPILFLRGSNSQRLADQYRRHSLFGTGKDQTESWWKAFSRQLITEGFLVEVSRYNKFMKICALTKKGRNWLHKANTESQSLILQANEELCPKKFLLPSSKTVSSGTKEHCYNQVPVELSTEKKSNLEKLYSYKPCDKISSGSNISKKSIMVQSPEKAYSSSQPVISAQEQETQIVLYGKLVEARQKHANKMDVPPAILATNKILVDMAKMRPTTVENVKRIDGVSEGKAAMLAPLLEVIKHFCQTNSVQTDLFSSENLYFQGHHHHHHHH

Row | SMILES | IC50 [µM]
1 | O=C1CCCN1c1ccc(CC(=O)N(Cc2ccncc2)C2C=CS(=O)(=O)C2)cc1 (centres unmarked) [I-444, N-(1,1-dioxo-2,3-dihydro-1lambda6-thiophen-3-yl)-2-[4-(2-oxopyrrolidin-1-yl)phenyl]-N-[(pyridin-4-yl)methyl]acetamide] | > 50
2 | O=C(Cc1ccc(-n2cccc2)cc1)N(Cc1cccc(B(O)O)c1)C1C=CS(=O)(=O)C1 (centres unmarked) [I-314, (3-{[N-(1,1-dioxo-2,3-dihydro-1lambda6-thiophen-3-yl)-2-[4-(1H-pyrrol-1-yl)phenyl]acetamido]methyl}phenyl)boronic acid] | 10 to 50
3 | O=C(CCc1nc(-c2ccccc2F)no1)N(Cc1ccncc1)C1C=CS(=O)(=O)C1 (centres unmarked) [I-496, N-(1,1-dioxo-2,3-dihydro-1lambda6-thiophen-3-yl)-3-[3-(2-fluorophenyl)-1,2,4-oxadiazol-5-yl]-N-[(pyridin-4-yl)methyl]propanamide] | > 50
4 | O=C(CCc1cccc(OC(F)(F)F)c1)N(Cc1ccncc1)C1C=CS(=O)(=O)C1 (centres unmarked) [I-508, N-(1,1-dioxo-2,3-dihydro-1lambda6-thiophen-3-yl)-N-[(pyridin-4-yl)methyl]-3-[3-(trifluoromethoxy)phenyl]propanamide] | > 50
5 | O=C(NC(Cc1c[nH]c2ccccc12)C(=O)N(Cc1ccncc1)C1C=CS(=O)(=O)C1)c1ccc(F)cc1 (single isomer, unassigned) [I-561] | > 50
6 | COCCc1cccn1-c1ccc(CC(=O)N(Cc2ccccc2)C2C=CS(=O)(=O)C2)cc1 (centres unmarked) [I-384, N-benzyl-N-(1,1-dioxo-2,3-dihydro-1lambda6-thiophen-3-yl)-2-{4-[2-(2-methoxyethyl)-1H-pyrrol-1-yl]phenyl}acetamide] | > 50
7 | Cn1ncc2cc(CN(C(=O)Cc3ccc(-n4cccc4)cc3)C3C=CS(=O)(=O)C3)ccc21 (centres unmarked) [I-226, N-(1,1-dioxo-2,3-dihydro-1lambda6-thiophen-3-yl)-N-[(1-methyl-1H-indazol-5-yl)methyl]-2-[4-(1H-pyrrol-1-yl)phenyl]acetamide] | 5 to 10
8 | O=C(Cc1ccc(C2CCCC2O)cc1)N(Cc1ccncc1)C1C=CS(=O)(=O)C1 (centres unmarked) [I-449, N-(1,1-dioxo-2,3-dihydro-1lambda6-thiophen-3-yl)-2-[4-(2-hydroxycyclopentyl)phenyl]-N-[(pyridin-4-yl)methyl]acetamide] | > 50
9 | O=C(Cc1ccc(OCc2ccccc2)cc1)N(Cc1ccncc1)C1C=CS(=O)(=O)C1 (centres unmarked) [I-501, 2-[4-(benzyloxy)phenyl]-N-(1,1-dioxo-2,3-dihydro-1lambda6-thiophen-3-yl)-N-[(pyridin-4-yl)methyl]acetamide] | > 50
10 | O=C(Cn1ncc2ccccc21)N(Cc1ccncc1)C1C=CS(=O)(=O)C1 (centres unmarked) [I-454, N-(1,1-dioxo-2,3-dihydro-1lambda6-thiophen-3-yl)-2-(1H-indazol-1-yl)-N-[(pyridin-4-yl)methyl]acetamide] | > 50
11 | O=C(Cc1ccc(-n2cccc2)cc1)N(Cc1cccc2nccnc12)C1C=CS(=O)(=O)C1 (centres unmarked) [I-316, N-(1,1-dioxo-2,3-dihydro-1lambda6-thiophen-3-yl)-2-[4-(1H-pyrrol-1-yl)phenyl]-N-[(quinoxalin-5-yl)methyl]acetamide] | 10 to 50
12 | CCc1csc(CN(C(=O)Cc2ccc(S(F)(F)(F)(F)F)cc2)C2C=CS(=O)(=O)C2)n1 (centres unmarked) [I-628, N-(1,1-dioxo-2,3-dihydro-1lambda6-thiophen-3-yl)-N-[(4-ethyl-1,3-thiazol-2-yl)methyl]-2-[4-(pentafluoro-lambda6-sulfanyl)phenyl]acetamide] | < 0.5
13 | O=C(CCc1cc2ccccc2s1)N(Cc1ccncc1)C1C=CS(=O)(=O)C1 (centres unmarked) [I-495, 3-(1-benzothiophen-2-yl)-N-(1,1-dioxo-2,3-dihydro-1lambda6-thiophen-3-yl)-N-[(pyridin-4-yl)methyl]propanamide] | > 50
14 | O=C1NC(c2ccccc2)CCN1CC(=O)N(Cc1ccncc1)C1C=CS(=O)(=O)C1 (centres unmarked) [I-819, N-(1,1-dioxo-2,3-dihydro-1lambda6-thiophen-3-yl)-2-(2-oxo-4-phenyl-1,3-diazinan-1-yl)-N-[(pyridin-4-yl)methyl]acetamide] | 10 to 50
15 | O=C(Cc1ccc(S(F)(F)(F)(F)F)cc1)N(Cc1nc(C2CC2)cs1)C1C=CS(=O)(=O)C1 (single isomer, unassigned) [I-4] | < 0.5
16 | O=C(Cc1ccc(-n2cccc2)cc1)N(Cc1nc(CC(F)(F)F)cs1)C1C=CS(=O)(=O)C1 (centres unmarked) [I-148, N-(1,1-dioxo-2,3-dihydro-1lambda6-thiophen-3-yl)-2-[4-(1H-pyrrol-1-yl)phenyl]-N-{[4-(2,2,2-trifluoroethyl)-1,3-thiazol-2-yl]methyl}acetamide] | 0.5 to 5

Results, then the compound that gave them:

Row | IC50 [µM] | SMILES
17 | > 50 | Cc1ccc(-c2ccc(CC(=O)N(Cc3ccncc3)C3C=CS(=O)(=O)C3)cc2)cc1 (centres unmarked) [I-470, N-(1,1-dioxo-2,3-dihydro-1lambda6-thiophen-3-yl)-2-{4′-methyl-[1,1′-biphenyl]-4-yl}-N-[(pyridin-4-yl)methyl]acetamide]
18 | 10 to 50 | COCC(C(=O)N(Cc1ccnc(OC)c1)C1C=CS(=O)(=O)C1)n1cc(-c2ccccc2)cn1 (centres unmarked) [I-357, N-(1,1-dioxo-2,3-dihydro-1lambda6-thiophen-3-yl)-3-methoxy-N-[(2-methoxypyridin-4-yl)methyl]-2-(4-phenyl-1H-pyrazol-1-yl)propanamide]
19 | 0.5 to 5 | COc1cc(CN(C(=O)C(OCCC#N)c2ccc(-c3ccc(F)c(F)c3)cc2F)[C@@H]2C=CS(=O)(=O)C2)ccn1 (single isomer, unassigned) [I-735, (2R*)-2-(2-cyanoethoxy)-N-[(3R)-1,1-dioxo-2,3-dihydro-1lambda6-thiophen-3-yl]-N-[(2-methoxypyridin-4-yl)methyl]-2-{3,3′,4′-trifluoro-[1,1′-biphenyl]-4-yl}acetamide]
20 | < 0.5 | COc1cc(CN(C(=O)C(c2ccc(-c3ccc(F)c(F)c3)cc2F)n2cc(OC(F)F)cn2)[C@@H]2C=CS(=O)(=O)C2)ccn1 (single isomer, unassigned) [I-685, (2R*)-2-[4-(difluoromethoxy)-1H-pyrazol-1-yl]-N-[(3R)-1,1-dioxo-2,3-dihydro-1lambda6-thiophen-3-yl]-N-[(2-methoxypyridin-4-yl)methyl]-2-{3,3′,4′-trifluoro-[1,1′-biphenyl]-4-yl}acetamide]
21 | 0.5 to 5 | O=C(Cc1ccc(-c2ccc(F)cc2)cc1F)N(Cc1ccncc1)C1C=CS(=O)(=O)C1 (centres unmarked) [I-115, 2-{3,4′-difluoro-[1,1′-biphenyl]-4-yl}-N-(1,1-dioxo-2,3-dihydro-1lambda6-thiophen-3-yl)-N-[(pyridin-4-yl)methyl]acetamide]
22 | 5 to 10 | COc1cc(CN(C(=O)C(C(=O)N(C)C)c2ccc(-c3ccc(F)cc3)cc2F)C2C=CS(=O)(=O)C2)ccn1 (single isomer, unassigned) [I-235, (2R**)-2-{3,4′-difluoro-[1,1′-biphenyl]-4-yl}-N-[(3R*)-1,1-dioxo-2,3-dihydro-1lambda6-thiophen-3-yl]-N-[(2-methoxypyridin-4-yl)methyl]-N′,N′-dimethylpropanediamide]
23 | 5 to 10 | O=C(C(C(=O)N(Cc1ccncc1)C1C=CS(=O)(=O)C1)c1ccc(-c2ccc(F)cc2)cc1)N1CCOCC1 (centres unmarked) [I-218, N-(1,1-dioxo-2,3-dihydro-1lambda6-thiophen-3-yl)-2-{4′-fluoro-[1,1′-biphenyl]-4-yl}-3-(morpholin-4-yl)-3-oxo-N-[(pyridin-4-yl)methyl]propanamide]
24 | 0.5 to 5 | COc1cc(C(C)N(C(=O)Cn2cc(-c3cc(F)c(F)c(F)c3)cn2)C2C=CS(=O)(=O)C2)ccn1 (single isomer, unassigned) [I-828, N-[(3R**)-1,1-dioxo-2,3-dihydro-1lambda6-thiophen-3-yl]-N-[(1R*)-1-(2-methoxypyridin-4-yl)ethyl]-2-[4-(3,4,5-trifluorophenyl)-1H-pyrazol-1-yl]acetamide]
25 | 10 to 50 | COC(C(=O)N(Cc1ccncc1)C1C=CS(=O)(=O)C1)c1ccc(-c2ccc(F)cc2)cc1 (single isomer, unassigned) [I-330, (2R*)-N-[(3R**)-1,1-dioxo-2,3-dihydro-1lambda6-thiophen-3-yl]-2-{4′-fluoro-[1,1′-biphenyl]-4-yl}-2-methoxy-N-[(pyridin-4-yl)methyl]acetamide]
26 | 0.5 to 5 | O=C(Cc1ccc(-c2ccc(F)cc2)cc1)N(Cc1ccncc1)C1C=CS(=O)(=O)C1 (centres unmarked) [I-200, N-(1,1-dioxo-2,3-dihydro-1lambda6-thiophen-3-yl)-2-{4′-fluoro-[1,1′-biphenyl]-4-yl}-N-[(pyridin-4-yl)methyl]acetamide]
27 | 0.5 to 5 | COc1cc(CN(C(=O)Cc2ccc(-n3cccc3C)cc2)C2C=CS(=O)(=O)C2)ccn1 (centres unmarked) [I-119, N-(1,1-dioxo-2,3-dihydro-1lambda6-thiophen-3-yl)-N-[(2-methoxypyridin-4-yl)methyl]-2-[4-(2-methyl-1H-pyrrol-1-yl)phenyl]acetamide]
28 | 0.5 to 5 | COc1cc(CN(C(=O)C(OCC2CCOCC2)c2ccc(-c3ccc(F)c(F)c3)cc2F)[C@@H]2C=CS(=O)(=O)C2)ccn1 (stereo partly drawn) [I-811, N-[(3R)-1,1-dioxo-2,3-dihydro-1lambda6-thiophen-3-yl]-N-[(2-methoxypyridin-4-yl)methyl]-2-[(oxan-4-yl)methoxy]-2-{3,3′,4′-trifluoro-[1,1′-biphenyl]-4-yl}acetamide]
29 | 10 to 50 | CN(C)C(=O)C(C(=O)N(Cc1ccnc(C(C)(C)O)c1)C1C=CS(=O)(=O)C1)c1ccc(-c2ccc(F)cc2)cc1F (single isomer, unassigned) [I-340, (2R**)-2-{3,4′-difluoro-[1,1′-biphenyl]-4-yl}-N-[(3R*)-1,1-dioxo-2,3-dihydro-1lambda6-thiophen-3-yl]-N-{[2-(2-hydroxypropan-2-yl)pyridin-4-yl]methyl}-N′,N′-dimethylpropanediamide]
